These results are taken from US8545898B2, “Broad-spectrum antiviral composition with excellent preservation stabilty” (Taiko Pharmaceutical Co., Ltd., priority 2007, dated 2013).

Where two headings read alike, the source gives them in different places.

In experiment [1] the target is human hepatitis B surface antigen (HBsAg) (Hepatitis B virus genotype C subtype adr, UniProt P12934). The experiment can be described thus: Anti-HBsAg activity, HBsAg titer by chemiluminescent immunoassay. Format: biochemical. The conditions noted are these: 100 ppm; for HBsAg antigen titer: untreated 54 IU/ml. How it is done:
For the antiviral testing, various concentrations of the chlorine dioxide solutions (agent A, agent B) were prepared and left in respective containers made of synthetic resin for 8 months. Specifically, each of the chlorine dioxide solutions obtained in each of Examples 1 and 2 was placed in a container having an opening with a diameter of 2 cm, and after closing a screw-cap, the container was left at room temperature for 8 months. Subsequently, an antiviral activity effect of the solution was examined. As controls, sodium hypochlorite (agent C), stabilized chlorine dioxide (sodium chlorite) (agent D), and povidone-iodine (agent E) were used. The agents C to E were not preserved for 8 months, and subjected to the test immediately after the purchase.
Each agent was added to human hepatitis B surface antigen (HBsAg), and after 1, 2, 3 or 4 days of sensitization, the agent was neutralized with a sodium thiosulfate solution, and HBsAg titer was measured using a chemiluminescent immunoassay “Architect-HBsAg (manufactured by Dainabot Co., Ltd.)”. An anti-HBsAg activity of the agent was evaluated.

For experiment [2], the system named is canine parvovirus <CPV(Y-1)>. The experiment in a line: Antiviral testing (canine parvovirus), TCID50 by swine hemagglutination test, CRFK cells. Format: cell-based.

Sequence of human hepatitis B surface antigen (HBsAg) (P12934 whole entry): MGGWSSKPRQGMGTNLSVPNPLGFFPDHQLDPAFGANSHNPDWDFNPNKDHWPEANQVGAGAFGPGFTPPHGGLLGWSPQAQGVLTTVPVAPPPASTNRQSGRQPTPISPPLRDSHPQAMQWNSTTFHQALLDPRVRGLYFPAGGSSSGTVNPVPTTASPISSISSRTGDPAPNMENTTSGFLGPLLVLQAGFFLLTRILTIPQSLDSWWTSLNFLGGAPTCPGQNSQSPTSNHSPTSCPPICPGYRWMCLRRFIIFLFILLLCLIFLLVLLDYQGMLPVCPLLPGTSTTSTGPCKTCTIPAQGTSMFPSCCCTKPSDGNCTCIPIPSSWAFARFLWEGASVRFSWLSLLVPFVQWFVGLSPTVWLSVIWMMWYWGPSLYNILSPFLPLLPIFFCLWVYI

Consider `OCl` [sodium hypochlorite, Sodium hypochlorite], for which the anti-HBsAg activity result in experiment [1] (1 to 4 days) was “absence of an anti-HBsAg activity”. In addition, the HBsAg antigen titer is given as 50 IU/ml in experiment [1] (sensitized time 1 day), 51 IU/ml in experiment [1] (sensitized time 2 days), 51 IU/ml in experiment [1] (sensitized time 3 days) and 49 IU/ml in experiment [1] (sensitized time 4 days). The “CPV infectivity titer remaining” value in experiment [2] (10 ppm, after 180 seconds) was found to be 100 TCID50. Moreover, in experiment [2] (100 ppm, after 120 seconds), the “decrease in CPV infectivity titer” value is on record as no less than 99.99%.

Take “sodium chlorite [stabilized chlorine dioxide solution]”: in experiment [2], the “decrease in CPV infectivity titer” value is recorded as “no decrease in the infectivity titer was observed”.
